Laboratory results taken from US20150105252A1, “SUBSTITUTED PYRAZOLES AS HERBICIDES” (E I DU PONT DE NEMOURS AND COMPANY, priority 2013, published 2015).

Assays:
oilseed rape = experiment: Test D preemergence; type: in vivo, Brassica napus; conditions: for Plant response rating, Oilseed Rape: Preemergence, scale 0 to 100
Description: (§1) Seeds of plant species selected from bluegrass (annual bluegrass, Poa annua), blackgrass (Alopecurus myosuroides), canarygrass (littleseed canarygrass, Phalaris minor), chickweed (common chickweed, Stellaria media), galium (catchweed bedstraw, Galium aparine), bromegrass, downy (downy bromegrass, Bromus tectorum), field poppy (Papaver rhoeas), field violet (Viola arvensis), foxtail, green (green foxtail, Setaria viridis), deadnettle (henbit deadnettle, Lamium amplexicaule), ryegrass, Italian (Italian ryegrass, Lolium multiflorum), kochia (Kochia scoparia), lambsquarters (Chenopodium album), oilseed rape (Brassica napus), pigweed (redroot pigweed, Amaranthus retroflexus), chamomile (scentless chamomile, Matricaria inodora), speedwell (bird's-eye speedwell, Veronica persica), barley, spring (spring barley, Hordeum vulgare), wheat, spring (spring wheat, Triticum aestivum), buckwheat, wild (wild buckwheat, Polygonum convolvulus), mustard, wild (wild mustard, Sinapis arvensis), oat, wild (wild oat, Avena fatua), radish, wild (wild radish, Raphanus raphanistrum), windgrass (Apera spica-venti), Russian thistle (Salsola kali), barley, winter (winter barley, Hordeum vulgare), and wheat, winter (winter wheat, Triticum aestivum) were planted into a silt loam soil and treated preemergence with test chemicals formulated in a non-phytotoxic solvent mixture which included a surfactant.
(§2) At the same time, these species were planted in pots containing Redi-Earth® planting medium (Scotts Company, 14111 Scottslawn Road, Marysville, Ohio 43041) comprising spaghnum peat moss, vermiculite, wetting agent and starter nutrients and treated with postemergence applications of the test chemicals formulated in the same manner. Plants ranged in height from 2 to 18 cm (1- to 4-leaf stage). Treated plants and controls were maintained in a controlled growth environment for 14 to 21 days after which time all species were compared to controls and visually evaluated. Plant response ratings, summarized in Table D, are based on a scale of 0 to 100 where 0 is no effect and 100 is complete control. A dash (-) response means no test result.

field violet = experiment: Test D postemergence; type: in vivo, Viola arvensis; conditions: scale 0 to 100
Procedure, shortened: (§3)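 Postemergence activity was tested on plants at the 1- to 4-leaf stage (2–18 cm) grown in peat-based medium, and preemergence activity on seeds in silt loam, with chemicals in a surfactant-containing non-phytotoxic solvent. Controlled-environment growth lasted 14–21 days before visual 0–100 scoring.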

windgrass = experiment: Test D postemergence; type: in vivo, Apera spica-venti; conditions: scale 0 to 100
Description: as §1, §2

speedwell [1] = experiment: Test D postemergence; type: in vivo, Veronica persica; conditions: scale 0 to 100
Description: as §1, §2

mustard, wild = experiment: Test D postemergence; type: in vivo, Sinapis arvensis; conditions: scale 0 to 100
Procedure, shortened: as §3

barley, winter = experiment: Test D postemergence; type: in vivo, Hordeum vulgare; conditions: scale 0 to 100
Procedure, shortened: as §3

barley, spring = experiment: Test D postemergence; type: in vivo, Hordeum vulgare; conditions: scale 0 to 100
Procedure, shortened: as §3

chamomile [2] = experiment: Test D postemergence; type: in vivo, Matricaria inodora; conditions: scale 0 to 100
Procedure, shortened: as §3

radish, wild = experiment: Test D postemergence; type: in vivo, Raphanus raphanistrum; conditions: scale 0 to 100
Procedure, shortened: as §3

bluegrass = experiment: Test D preemergence; type: in vivo, Poa annua; conditions: for Plant response rating, Bluegrass: Preemergence, scale 0 to 100
Description: as §1, §2

oat, wild [3] = experiment: Test D postemergence; type: in vivo, Avena fatua; conditions: scale 0 to 100
Description: as §1, §2

lambsquarters = experiment: Test D preemergence; type: in vivo, Chenopodium album; conditions: for Plant response rating, Lambsquarters: Preemergence, scale 0 to 100
Description: as §1, §2

oat, wild [4] = experiment: Test D preemergence; type: in vivo, Avena fatua; conditions: for Plant response rating, Oat, Wild: Preemergence, scale 0 to 100
Description: as §1, §2

canarygrass [5] = experiment: Test D postemergence; type: in vivo, Phalaris minor; conditions: scale 0 to 100
Description: as §1, §2

speedwell [6] = experiment: Test D preemergence; type: in vivo, Veronica persica; conditions: for Plant response rating, Speedwell: Preemergence, scale 0 to 100
Description: as §1, §2

canarygrass [7] = experiment: Test D preemergence; type: in vivo, Phalaris minor; conditions: for Plant response rating, Canarygrass: Preemergence, scale 0 to 100
Description: as §1, §2

blackgrass = experiment: Test D postemergence; type: in vivo, Alopecurus myosuroides; conditions: scale 0 to 100
Description: as §1, §2

chamomile [8] = experiment: Test D preemergence; type: in vivo, Matricaria inodora; conditions: for Plant response rating, Chamomile: Preemergence, scale 0 to 100
Description: as §1, §2

wheat, winter = experiment: Test D preemergence; type: in vivo, Triticum aestivum; conditions: for Plant response rating, Wheat, Winter: Preemergence, scale 0 to 100
Procedure, shortened: as §3

wheat, spring = experiment: Test D preemergence; type: in vivo, Triticum aestivum; conditions: for Plant response rating, Wheat, Spring: Preemergence, scale 0 to 100
Procedure, shortened: as §3

[9] = 16 g ai/ha, taken as preemergence

Compound: CCc1cc(C(=O)NC2CC2)nn1Cc1ccnc(C(F)(F)F)c1 [Compound 76]
- Plant response rating (scale 0 to 100), Oilseed Rape (oilseed rape; [9]): 10
- Plant response rating, Oilseed Rape (oilseed rape; 31 g ai/ha): 30
- Plant response rating, Oilseed Rape (oilseed rape; 62 g ai/ha): 65
- Plant response rating, Oilseed Rape (oilseed rape; 125 g ai/ha): 90
- Plant response rating, Oilseed Rape (oilseed rape; 250 g ai/ha): 100
- Plant response rating, Field Violet (field violet; Postemergence, 16 g ai/ha): 10
- Field Violet plant response rating (field violet; Postemergence, 31 g ai/ha): 15
- Field Violet plant response rating (field violet; Postemergence, 125 g ai/ha): 70
- Field Violet plant response rating (field violet; Postemergence, 250 g ai/ha): 85
- Field Violet plant response rating (field violet; postemergence, 62 g ai/ha): 20
- Plant response rating, Windgrass (windgrass; Postemergence, 16 g ai/ha): 5
- Windgrass plant response rating (windgrass; Postemergence, 31 g ai/ha): 5
- Windgrass plant response rating (windgrass; Postemergence, 125 g ai/ha): 10
- Windgrass plant response rating (windgrass; Postemergence, 250 g ai/ha): 15
- Windgrass plant response rating (windgrass; postemergence, 62 g ai/ha): 10
- Plant response rating, Speedwell (speedwell [1]; Postemergence, 16 g ai/ha): 65
- Speedwell plant response rating (speedwell [1]; Postemergence, 31 g ai/ha): 60
- Speedwell plant response rating (speedwell [1]; Postemergence, 125 g ai/ha): 75
- Speedwell plant response rating (speedwell [1]; Postemergence, 250 g ai/ha): 100
- Speedwell plant response rating (speedwell [1]; postemergence, 62 g ai/ha): 75
- Plant response rating, Mustard, Wild (mustard, wild; Postemergence, 16 g ai/ha): 10
- Mustard, Wild plant response rating (mustard, wild; Postemergence, 31 g ai/ha): 40
- Mustard, Wild plant response rating (mustard, wild; Postemergence, 125 g ai/ha): 100
- Mustard, Wild plant response rating (mustard, wild; Postemergence, 250 g ai/ha): 100
- Mustard, Wild plant response rating (mustard, wild; postemergence, 62 g ai/ha): 70
- Barley, Winter plant response rating (barley, winter; Postemergence, 16 g ai/ha): 10
- Barley, Winter plant response rating (barley, winter; Postemergence, 31 g ai/ha): 10
- Barley, Winter plant response rating (barley, winter; Postemergence, 125 g ai/ha): 15
- Barley, Winter plant response rating (barley, winter; Postemergence, 250 g ai/ha): 20
- Barley, Winter plant response rating (barley, winter; postemergence, 62 g ai/ha): 10
- Barley, Spring plant response rating (barley, spring; Postemergence, 16 g ai/ha): 0
- Barley, Spring plant response rating (barley, spring; Postemergence, 31 g ai/ha): 0
- Barley, Spring plant response rating (barley, spring; Postemergence, 125 g ai/ha): 10
- Barley, Spring plant response rating (barley, spring; Postemergence, 250 g ai/ha): 15
- Barley, Spring plant response rating (barley, spring; postemergence, 62 g ai/ha): 5
- Plant response rating, Chamomile (chamomile [2]; Postemergence, 16 g ai/ha): 10
- Chamomile plant response rating (chamomile [2]; Postemergence, 31 g ai/ha): 25
- Chamomile plant response rating (chamomile [2]; Postemergence, 125 g ai/ha): 50
- Chamomile plant response rating (chamomile [2]; Postemergence, 250 g ai/ha): 55
- Chamomile plant response rating (chamomile [2]; postemergence, 62 g ai/ha): 30
- Plant response rating, Radish, Wild (radish, wild; Postemergence, 16 g ai/ha): 5
- Radish, Wild plant response rating (radish, wild; Postemergence, 31 g ai/ha): 10
- Radish, Wild plant response rating (radish, wild; Postemergence, 125 g ai/ha): 70
- Radish, Wild plant response rating (radish, wild; Postemergence, 250 g ai/ha): 65
- Radish, Wild plant response rating (radish, wild; postemergence, 62 g ai/ha): 20
- Plant response rating (scale 0 to 100), Bluegrass (bluegrass; [9]): 0
- Plant response rating, Bluegrass (bluegrass; 31 g ai/ha): 0
- Plant response rating, Bluegrass (bluegrass; 62 g ai/ha): 5
- Plant response rating, Bluegrass (bluegrass; 125 g ai/ha): 55
- Plant response rating, Bluegrass (bluegrass; 250 g ai/ha): 100
- Plant response rating, Oat, Wild (oat, wild [3]; Postemergence, 16 g ai/ha): 5
- Oat, Wild plant response rating (oat, wild [3]; Postemergence, 31 g ai/ha): 5
- Oat, Wild plant response rating (oat, wild [3]; Postemergence, 125 g ai/ha): 10
- Oat, Wild plant response rating (oat, wild [3]; Postemergence, 250 g ai/ha): 15
- Oat, Wild plant response rating (oat, wild [3]; postemergence, 62 g ai/ha): 10
- Plant response rating (scale 0 to 100), Lambsquarters (lambsquarters; [9]): 30
- Plant response rating, Lambsquarters (lambsquarters; 31 g ai/ha): 70
- Plant response rating, Lambsquarters (lambsquarters; 62 g ai/ha): 95
- Plant response rating, Lambsquarters (lambsquarters; 125 g ai/ha): 100
- Plant response rating, Lambsquarters (lambsquarters; 250 g ai/ha): 100
- Plant response rating (scale 0 to 100), Oat, Wild (oat, wild [4]; [9]): 0
- Plant response rating, Oat, Wild (oat, wild [4]; 31 g ai/ha): 10
- Plant response rating, Oat, Wild (oat, wild [4]; 62 g ai/ha): 35
- Plant response rating, Oat, Wild (oat, wild [4]; 125 g ai/ha): 90
- Plant response rating, Oat, Wild (oat, wild [4]; 250 g ai/ha): 100
- Plant response rating, Canarygrass (canarygrass [5]; Postemergence, 16 g ai/ha): 5
- Canarygrass plant response rating (canarygrass [5]; Postemergence, 31 g ai/ha): 5
- Canarygrass plant response rating (canarygrass [5]; Postemergence, 125 g ai/ha): 10
- Canarygrass plant response rating (canarygrass [5]; Postemergence, 250 g ai/ha): 15
- Canarygrass plant response rating (canarygrass [5]; postemergence, 62 g ai/ha): 10
- Plant response rating (scale 0 to 100), Speedwell (speedwell [6]; [9]): 100
- Plant response rating, Speedwell (speedwell [6]; 31 g ai/ha): 100
- Plant response rating, Speedwell (speedwell [6]; 62 g ai/ha): 100
- Plant response rating, Speedwell (speedwell [6]; 125 g ai/ha): 100
- Plant response rating, Speedwell (speedwell [6]; 250 g ai/ha): 100
- Plant response rating (scale 0 to 100), Canarygrass (canarygrass [7]; [9]): 0
- Plant response rating, Canarygrass (canarygrass [7]; 31 g ai/ha): 5
- Plant response rating, Canarygrass (canarygrass [7]; 62 g ai/ha): 65
- Plant response rating, Canarygrass (canarygrass [7]; 125 g ai/ha): 100
- Plant response rating, Canarygrass (canarygrass [7]; 250 g ai/ha): 100
- Plant response rating, Blackgrass (blackgrass; Postemergence, 16 g ai/ha): 5
- Blackgrass plant response rating (blackgrass; Postemergence, 31 g ai/ha): 0
- Blackgrass plant response rating (blackgrass; Postemergence, 125 g ai/ha): 10
- Blackgrass plant response rating (blackgrass; Postemergence, 250 g ai/ha): 10
- Blackgrass plant response rating (blackgrass; postemergence, 62 g ai/ha): 5
- Plant response rating (scale 0 to 100), Chamomile (chamomile [8]; [9]): 50
- Plant response rating, Chamomile (chamomile [8]; 31 g ai/ha): 80
- Plant response rating, Chamomile (chamomile [8]; 62 g ai/ha): 95
- Plant response rating, Chamomile (chamomile [8]; 125 g ai/ha): 100
- Plant response rating, Chamomile (chamomile [8]; 250 g ai/ha): 100
- Plant response rating (scale 0 to 100), Wheat, Winter (wheat, winter; [9]): 0
- Plant response rating, Wheat, Winter (wheat, winter; 31 g ai/ha): 0
- Plant response rating, Wheat, Winter (wheat, winter; 62 g ai/ha): 5
- Plant response rating, Wheat, Winter (wheat, winter; 125 g ai/ha): 40
- Plant response rating, Wheat, Winter (wheat, winter; 250 g ai/ha): 60
- Plant response rating (scale 0 to 100), Wheat, Spring (wheat, spring; [9]): 0
- Plant response rating, Wheat, Spring (wheat, spring; 31 g ai/ha): 0
- Plant response rating, Wheat, Spring (wheat, spring; 62 g ai/ha): 10
- Plant response rating, Wheat, Spring (wheat, spring; 125 g ai/ha): 60
- Plant response rating, Wheat, Spring (wheat, spring; 250 g ai/ha): 75
